Data: US20230100789A1, “Method for activating AMPK and the use of Adenine” (Energenesis Biomedical Co., Ltd., priority 2013, published 2023)

Assays:
TNFα = assay: LPS-induced inflammatory response in THP1 macrophage, secreted TNFα (ELISA); format: cell-based, human; details: THP1 macrophages, 50 ng LPS 6 hr
Protocol: (§1) Effects of adenine on inflammatory response were evaluated in human THP1 macrophage by examining protein level of intracellular COX-2 and secreted TNFα, IL-1β and IL-6. Differentiation of THP1 monocytes into macrophages was induced by 50 nM PMA for 24 hr. THP1 macrophages were further stimulated by 50 ng LPS for 6 hr in the presence of 10-600 μM of adenine or vehicle followed by cell lysis and western blot analysis. Equal amounts of protein were separated by SDS-PAGE and then electroblotted on to PVDF membranes. Membranes were blocked with 3% BSA in PBS for 60 min and incubated with an anti-COX-2 antibody (1:1,000, Cell signaling), an anti-actin antibody (1:5,000, Cell signaling) at 4° C. overnight followed by the corresponding secondary antibody for 1 h at room temperature (RT). Immunoreactive bands were detected by enhanced chemiluminescence (ECL; Pierce, Rockford, Ill., USA) and recorded using Kodak film (Rochester, N.Y., USA). The detected signals were scanned and then quantified using TotalLab Quant software (TotalLab). The secreted TNFα, IL-1β and IL-6 were analyzed by enzyme-linked immunosorbent assays.

IL-1β = assay: LPS-induced inflammatory response in THP1 macrophage, secreted IL-1β (ELISA); format: cell-based, human; details: THP1 macrophages, 50 ng LPS 6 hr
Protocol: as §1

LC3 = assay: Autophagy assay in Neuro2A cells (LC3-II/LC3-I western blot); format: cell-based, mouse; details: 24 h
Protocol: Amyloid β peptide and autophagy assay Effects of adenine on Amyloid β peptide were analyzed in mouse neuroblastoma cell Neuro2A. Neuro2A cells were cultured in high-glucose Dulbecco's modified Eagle's medium (DMEM) containing 10% fetal bovine serum (FBS), 4 mM L-glutamine, 2 mM sodium pyruvate and 1% penicillin/streptomycin (Invitrogen GibcoBRL, Carlsbad, Calif., USA) at 37° C. under 5% CO2. Cells were plated at 3×10^5 per well (6-well plate). 24 h after plating, cells were transfected with human APP695 and treated with indicated concentration of adenine for 24 h followed by cell lysis and western blot analysis. Equal amounts of protein were separated by SDS-PAGE and then electroblotted on to PVDF membranes. Membranes were blocked with 3% BSA in PBS for 60 min and incubated with an anti-Aβ antibody (1:1,000, abcam), an anti-LC3 antibody (1:1,000, Cell signaling), and an anti-actin antibody (1:5,000, Cell signaling) at 4° C. overnight followed by the corresponding secondary antibody for 1 h at room temperature (RT). Immunoreactive bands were detected by enhanced chemiluminescence (ECL; Pierce, Rockford, Ill., USA) and recorded using Kodakfilm (Rochester, N.Y., USA). The detected signals were scanned and then quantified by using TotalLab Quant software (TotalLab).
Because the conversion of LC3-I to LC3-II is indicative of autophagy activity, the higher LC3-II/LC3-I ratio in adenine treated cells reflects the ability of adenine to induce autophagy activity.

3T3 cells = assay: Fibroblast proliferation assay (trypan blue cell counting); format: cell-based, Human; details: 72 h, mean±SEM
Protocol: Human fibro blast cell line 3T3 were cultured in high-glucose Dulbecco's modified Eagle's medium (DMEM) containing 10% fetal bovine serum (FBS), 4 mM L-glutamine, 2 mM sodium pyruvate and 1% penicillin/streptomycin (Invitrogen GibcoBRL, Carlsbad, Calif., USA) at 37° C. under 5% CO2. For cell proliferation assay, 3T3 cells were plated at 1×10^5 per well (6-well plate). 24 h after plating, cells were treated with indicated concentration of adenine for 72 h and the number of viable cells was counted. Cells were detached using trypsin-EDTA solution and stained with trypan blue. The living cells were counted using hemocytometer. […] Data are presented as the mean±SEM of three independent experiments.

high-fat diet-fed mice = assay: Anti-diabetic effects in high-fat diet-fed mice (type 2 diabetes model); format: in vivo, C57BL/6J mice; details: IP 0.1 to 50 mg/kg twice a day for 6 days
Protocol: To further evaluate the effects of adenine on the modulation of plasma glucose level, the high-fat diet-fed mice were served as a type 2 diabetes animal model. C57BL/6J mice were maintained at 22° C. under a 12-h light/dark cycle and fed either a high fat diet (60% kcal % fat) or a normal diet ad libitum. Intraperitoneal injections of adenine (0.1 to 50 mg/kg) or vehicle were given to the high-fat diet-fed mice from the age of 24 weeks and glucose readings were measure at 1 and 3 hr. IP administration of adenine or vehicle only to the high-fat diet-fed mice continued twice a day for 6 days. On day 6, plasma was collected 1 hr after the last dosing for analyzing, evaluating, measuring plasma glucose and triglycerides.

Aβ infusion mice = assay: Aβ-induced Alzheimer's disease model mice, Morris water maze; format: in vivo, C57BL/6J mice; details: daily IP 0.01, 0.1, 5 or 30 mg/kg for 4 weeks
Protocol: Aβ25-35 was purchased from Sigma-Aldrich (St. Louis, Mo.). The peptides were dissolved in distilled saline and aggregated by incubation at 37° C. for 7 days before injection. C57BL/6J mice were maintained at 22° C. under a 12-h light/dark cycle. Adult mice were anesthetized by ketamine (500 mg/kg) and xylazine (100 mg/kg) and placed in a stereotaxic frame (Stoelting, Wood Dale, Ill., USA). 5 nmol of the aggregated A1325-35 were injected into the lateral ventricle using a 10-μ1 Hamilton syringe (Hamilton Company, Reno, Nev., USA). The target anterior-posterior (AP), medial-lateral (ML) and dorsoventral coordinates were −0.5 mm, ±1 mm and −2.5 mm relative to the bregma. To evaluate the effect of adenine on neurodegenerative disease, Aβ infusion mice were daily intraperitoneally injected with 0.01, 0.1, 5 or 30 mg/kg bodyweight of adenine or vehicle for 4 weeks. The cognitive functions of these mice were analyzed by using Morris water maze assay after 4 weeks injection. The water maze was performed in a circular pool filled with water and a platform was submerged below the water's surface in the target quadrant for hidden platform test. […] Mice were allowed to swim in the maze for 60 s and recorded by a video camera. The latency to find the platform and swim paths were analyzed by EthoVision software (Version 3.1, Noldus, The Netherlands).

[1] = test system: 6-mm full-thickness excisional skin wounds; assay: Excisional skin wound healing and scar formation in mice; format: in vivo, C57BL/6J mice
Protocol: C57BL/6J mice were maintained at 22° C. under a 12-h light/dark cycle. The experiments were performed with 12-weeks old mice. After anesthetized by an intraperitoneal injection of ketamine (500 mg/kg) and xylazine (100 mg/kg), 6-mm full-thickness excisional skin wounds was made on the backs of mice using 6-mm skin biopsy punches. Immediately after wounding, 10-1200 M of adenine in 25 l saline or saline alone was applied to the wound bed. The skin wounds were then covered by semipermeable transparent dressing and fixed to the skin. The mice were treated with adenine or vehicle for 14 days and then sacrificed. The scar formation is assessed by Masson's trichrome staining to observe the fibrosis process and the collagen framework of the healed wound (Fixed by 4% paraformaldehyde).

`Nc1ncnc2nc[nH]c12` [Adenine, adenine] was tested, and the “TNF•(% to control)” value (TNFα; adenine 10 microM) was 85 ± 9.1 % to control, the “TNF•(% to control)” value (TNFα; adenine 100 microM) was 41 ± 2.6 % to control and the “TNF•(% to control)” value (TNFα; adenine 600 microM) was 23 ± 1.8 % to control. The “IL-1β•(% to control)” value (IL-1β; adenine 10 microM) was 91 ± 8.4 % to control, the “IL-1β•(% to control)” value (IL-1β; adenine 100 microM) was 29 ± 5.5 % to control and the “IL-1β•(% to control)” value (IL-1β; adenine 600 microM) was 17 ± 3.7 % to control. For the same molecule, the “LC3-II/LC3-Iratio (relative to control)” value (LC3; adenine 10 microM) was 1.2 ± 0.1 relative to control, the “LC3-II/LC3-Iratio (relative to control)” value (LC3; adenine 20 microM) was 1.8 ± 0.3 relative to control and the “LC3-II/LC3-Iratio (relative to control)” value (LC3; adenine 30 microM) was 2.8 ± 0.2 relative to control. For the same molecule, the “LC3-II/LC3-Iratio (relative to control)” value (LC3; adenine 40 microM) was 2.9 ± 0.2 relative to control, the “LC3-II/LC3-Iratio (relative to control)” value (LC3; adenine 50 microM) was 3.2 ± 0.3 relative to control and the “Cell number (% to control)” value (3T3 cells; adenine 10 microM) was 91 ± 2.7 % to control. For the same molecule, the “Cell number (% to control)” value (3T3 cells; adenine 50 microM) was 73 ± 8.1 % to control, the “Cell number (% to control)” value (3T3 cells; adenine 100 microM) was 64 ± 5.3 % to control and the “Cell number (% to control)” value (3T3 cells; adenine 200 microM) was 48 ± 2.8 % to control. The “Cell number (% to control)” value (3T3 cells; adenine 500 microM) was 33 ± 6.4 % to control, the “Cell number (% to control)” value (3T3 cells; adenine 1000 microM) was 27 ± 11.3 % to control and the “lower body weight compare to the control group” value (high-fat diet-fed mice) was “more than 15%”. For the same molecule, the “lower plasma glucose compare to the control group” value (high-fat diet-fed mice; plasma 1 hr after last dosing) was greater than 30%, the “lower plasma triacylglycerides compare to the control group” value (high-fat diet-fed mice; plasma 1 hr after last dosing) was “more than 35%” and the “lower plasma glucose compare to the control group” value (high-fat diet-fed mice; plasma 1 hr after last dosing, listed as adenine) was “more than 30%”. The “percentage time in target quadrant, probe assay” value (Aβ infusion mice) was “higher percentage time in target quadrant”, the “time to find platform, hidden platform test” value (Aβ infusion mice; dose-dependent) was “significantly shorter time to find platform” and the scar width ([1]; topical adenine, 14 days post-wounding, vs vehicle treated wounds) was “significantly decreased the scar width”. For the same molecule, the “extent of wound closure” value ([1]; topical, 10-1200 µM of adenine in 25 µl saline, 14 days of treatment, dose-dependent, vs control mice) was “significantly greater”.
